Like-named read-outs stand apart in the source and are kept apart here.
How the values were obtained:
[1] = tested on: RNA Polymerase II Serine 5 phosphorylation (Rpb1 CTD, downstream substrate of CDK7) in A549 cells; assay: Imaging-based cellular RNA PolII Ser5 phosphorylation assay in A549 cells; type: cell-based, human; details: wild-type CDK7, RNA PolII Ser5 phosphorylation, averaged over all measurements; for IC50: Homo sapiens, A549, A549 cells, read-out: CDK7_A549 Wild-type CDK7 (pIC50) (converted)
Summary of the method: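 A549 cells, seeded 1000/well in DMEM with 1% FBS and cultured 20 h, were treated with compound for 3 h at 37 °C. Ser5-phospho-Rpb1 CTD detected by immunofluorescence imaging after fixation and methanol permeabilization; IC50 from curve fit normalized to DMSO and 10 μM reference-compound controls.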

[2] = tested on: RNA Polymerase II Serine 5 phosphorylation in A549 cells overexpressing CDK7-mutant (C312S); assay: Imaging-based cellular RNA PolII Ser5 phosphorylation assay in A549 cells overexpressing CDK7-mutant (C312S); type: cell-based, human; details: RNA PolII Ser5 phosphorylation, averaged over all measurements; for IC50: Homo sapiens, A549, A549 cells overexpressing CDK7-mutant (C312S), read-out: CDK7_A549 mutant hCDK7(pIC50) (converted)
Summary of the method: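 A549 cells overexpressing CDK7 C312S (with endogenous wild-type CDK7) were treated with compound for 3 h at 37 °C in 1% FBS medium. Phospho-Rpb1 CTD Ser5 was immunostained after fixation and imaged. IC50 came from curve fit of % control, normalised to DMSO and 10 μM reference-compound controls.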

[3] = molecular target: CDK7/cyclinH/MAT1 trimeric complex (Homo sapiens, UniProt P50613); assay: In vitro CDK7 assay, potency of irreversible covalent inhibitors (kinact/KI), coupled PK/LDH ADP readout at 340 nm
[4] = CDK7 (20 nM enz.) (KI, μM), 20 nM enzyme
[5] = read-out: CDK7 (20 nM enz.) (kinact, s^−1), 20 nM enzyme
[6] = read-out: CDK7 (20 nM enz.) (kinact/KI, M^−1*s^−1), 20 nM enzyme
[7] = read-out: CDK7 (20 nM enz.) (kobs/[I], M^−1*s^−1), 20 nM enzyme
[8] = CDK7 (KI(μM)), […], 1 mM ATP, room temperature, averaged values over all measurements
[9] = read-out: CDK7 (kinact, s^−1), kinact = maximal rate of inactivation, 1 mM ATP, room temperature, averaged values over all measurements
[10] = read-out: CDK7 (kinact/KI, M^−1*s^−1), potency of irreversible covalent inhibitors, 1 mM ATP, room temperature, averaged values over all measurements

Sequence of CDK7/cyclinH/MAT1 trimeric complex (P50613 whole entry): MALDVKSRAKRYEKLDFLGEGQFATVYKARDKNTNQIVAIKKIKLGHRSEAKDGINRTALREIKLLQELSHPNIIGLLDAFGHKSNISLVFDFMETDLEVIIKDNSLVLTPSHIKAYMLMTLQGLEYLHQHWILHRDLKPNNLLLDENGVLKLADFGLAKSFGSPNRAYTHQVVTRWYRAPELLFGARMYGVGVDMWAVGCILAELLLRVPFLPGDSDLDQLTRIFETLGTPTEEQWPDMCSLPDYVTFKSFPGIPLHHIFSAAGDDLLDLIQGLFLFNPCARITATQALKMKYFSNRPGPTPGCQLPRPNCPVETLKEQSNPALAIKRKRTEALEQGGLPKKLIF
Sequence of CDK7/cyclinH/MAT1 trimeric complex (P51946 whole entry partner): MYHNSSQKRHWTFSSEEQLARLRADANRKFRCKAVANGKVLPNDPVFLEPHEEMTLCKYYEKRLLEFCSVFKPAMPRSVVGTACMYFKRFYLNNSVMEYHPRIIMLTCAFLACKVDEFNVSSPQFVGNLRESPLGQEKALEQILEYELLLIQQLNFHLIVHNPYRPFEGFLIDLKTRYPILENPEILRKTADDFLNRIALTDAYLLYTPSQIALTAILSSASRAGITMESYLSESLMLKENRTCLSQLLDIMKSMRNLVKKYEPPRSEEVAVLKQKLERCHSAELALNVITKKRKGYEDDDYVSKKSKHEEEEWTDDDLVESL
Sequence of CDK7/cyclinH/MAT1 trimeric complex (P51948 whole entry partner): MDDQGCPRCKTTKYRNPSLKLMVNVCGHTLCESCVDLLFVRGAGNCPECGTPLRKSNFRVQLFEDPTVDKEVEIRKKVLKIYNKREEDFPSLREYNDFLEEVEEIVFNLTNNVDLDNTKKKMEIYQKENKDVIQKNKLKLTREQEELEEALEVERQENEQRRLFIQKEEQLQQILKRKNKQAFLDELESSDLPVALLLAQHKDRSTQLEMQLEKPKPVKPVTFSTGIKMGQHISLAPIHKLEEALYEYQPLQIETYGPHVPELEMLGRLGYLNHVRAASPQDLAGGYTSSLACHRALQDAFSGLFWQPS

SMILES	IC50 [1]	IC50 [2]	Ki [3, 4]	kinact [3, 5]	kinact/KI [3, 6]	CDK7_A549 Wild-type CDK7 (pIC50) ([1]; A549 cells)	CDK7_A549 mutant hCDK7(pIC50) ([2]; A549 cells overexpressing CDK7-mutant (C312S))	CDK7 (20 nM enz.) (kinact, s^−1) ([3]; 20 nM enzyme)	CDK7 (20 nM enz.) (kinact/KI, M^−1*s^−1) ([3]; 20 nM enzyme)	kinact/KI [3, 7]	Ki [3, 8]	kinact [3, 9]	kinact/KI [3, 10]
C=CC(=O)N1CC(N2CC(c3cc4c(c(C)n3)OC(C)c3c(N5CCOCC5)ccnc3N4)C2)C1 (stereo not drawn) [Compound 264]	~138 nM	> 10000 nM	0.0439 µM	3.44e-05 s⁻¹	782 M⁻¹ s⁻¹	–	–	–	–	–	–	–	–
C=CC(=O)N1CCC(n2cc(-c3cc(C)c4c(c3)Nc3nccc(N5CCOCC5)c3CO4)cn2)CC1 [Compound 379]	224 nM	7080 nM	0.0333 µM	1.58e-05 s⁻¹	475 M⁻¹ s⁻¹	–	–	–	–	–	–	–	–
C=CC(=O)N1CC[C@@H](N2CC(c3cc4c(c(C(F)(F)F)n3)OCc3c(N5CCOCC5)ccnc3N4)C2)C1 (single isomer, unassigned) [Compound 402]	–	–	0.0823 µM	–	–	7.1	5.15	0.000126 s⁻¹	1530.27 M⁻¹ s⁻¹	–	–	–	–
C=CC(=O)N1CC(N2CC[C@@H](c3cc4c(c(C)n3)O[C@@H](C)c3c(N5CCOCC5)ccnc3N4)C2)C1 (single isomer, unassigned) [Compound 243]	126 nM	> 10000 nM	0.0802 µM	3.93e-05 s⁻¹	490 M⁻¹ s⁻¹	–	–	–	–	–	–	–	–
C=CC(=O)N1CC[C@H](N2CC(c3cc4c(c(C)n3)OCc3c(N5CCOCC5)ccnc3N4)C2)[C@H](F)C1 [Compound 225]	126 nM	> 10000 nM	0.337 µM	6.24e-05 s⁻¹	185 M⁻¹ s⁻¹	–	–	–	–	–	–	–	–
C=CC(=O)N1CC(N2CCC(c3cc4c(cn3)O[C@@H](C)c3c(N5CCOCC5)ccnc3N4)CC2)C1 (single isomer, unassigned) [Compound 261]	955 nM	> 3980 nM	1.11 µM	3.89e-05 s⁻¹	34.9 M⁻¹ s⁻¹	–	–	–	–	–	–	–	–
C=CC(=O)N1CC[C@@H](N2CC(c3cc(C#N)c4c(c3)Nc3nccc(N5CCOCC5)c3[C@@H](C)O4)C2)C1 (single isomer, unassigned) [Compound 462]	50.1 nM	5250 nM	–	–	509 M⁻¹ s⁻¹	–	–	–	–	–	–	–	–
C=CC(=O)N1CC(N2CC(c3cc4c(c(C#N)n3)OCc3c(C5CCOCC5)ccnc3N4)C2)C1 [Compound 339]	145 nM	> 10000 nM	0.0746 µM	7.81e-05 s⁻¹	1050 M⁻¹ s⁻¹	–	–	–	–	–	–	–	–
C=CC(=O)N1CC(N2CCC(c3ccc4c(c3)Nc3ncc(Cl)c(N5CCS(=O)(=O)CC5)c3CO4)CC2)C1 [Compound 60]	977 nM	> 10000 nM	0.128 µM	6.43e-05 s⁻¹	502 M⁻¹ s⁻¹	–	–	–	–	–	–	–	–
C=CC(=O)N1CC(N2CCC(c3cc(Cl)c4c(c3)Nc3nccc(C5CCOCC5)c3CO4)CC2)C1 [Compound 101]	64.6 nM	> 10000 nM	–	–	–	–	–	–	–	1110 M⁻¹ s⁻¹	–	–	–
C=CC(=O)N1CCC(c2ccc(-c3ccc4c(c3)Nc3nccc(N5CCOCC5)c3CO4)cn2)C1 (stereo not drawn) [Compound 25]	891 nM	> 10000 nM	–	–	–	–	–	–	–	–	0.0648 µM	2.33e-05 s⁻¹	254 M⁻¹ s⁻¹
C=CC(=O)N1CC[C@@H](N2CC(c3cc4c(c(C(F)(F)F)c3)OCc3c(N5CCOCC5)ccnc3N4)C2)C1 (single isomer, unassigned) [Compound 240]	55 nM	5130 nM	0.0242 µM	3.61e-05 s⁻¹	1490 M⁻¹ s⁻¹	–	–	–	–	–	–	–	–
C=CC(=O)N1CC(N2CCC[C@@H](c3ccc4c(c3)Nc3nccc(N5CCOCC5)c3CO4)C2)C1 (single isomer, unassigned) [Compound 145]	977 nM	> 10000 nM	0.872 µM	7.9e-05 s⁻¹	90.6 M⁻¹ s⁻¹	–	–	–	–	–	–	–	–
C=CC(=O)N1CC[C@@H](N2CC(c3cc4c(c(C5CC5)n3)OCc3c(C5CCOCC5)ccnc3N4)C2)C1 (single isomer, unassigned) [Compound 445]	123 nM	8510 nM	0.0844 µM	6.94e-05 s⁻¹	823 M⁻¹ s⁻¹	–	–	–	–	–	–	–	–
COC(=O)/C=C/C(=O)N1CC(N2CCC(c3cc4c(c(C)n3)OCc3c(-c5cnn(C)c5)ccnc3N4)CC2)C1 [Compound 431]	55 nM	> 10000 nM	–	–	–	–	–	–	–	1170 M⁻¹ s⁻¹	–	–	–
C=CC(=O)N1CC(N2CC[C@H](c3cc(C)c4c(c3)Nc3nccc(C5CCOCC5)c3CO4)N(C)CC2)C1 (single isomer, unassigned) [Compound 257]	44.7 nM	7240 nM	0.0574 µM	7.95e-05 s⁻¹	1380 M⁻¹ s⁻¹	–	–	–	–	–	–	–	–

SMILES	IC50 [1]	IC50 [2]	Ki [3, 4]	kinact [3, 5]	kinact/KI [3, 6]	CDK7_A549 Wild-type CDK7 (pIC50) ([1]; A549 cells)	CDK7_A549 mutant hCDK7(pIC50) ([2]; A549 cells overexpressing CDK7-mutant (C312S))	CDK7 (20 nM enz.) (kinact, s^−1) ([3]; 20 nM enzyme)	CDK7 (20 nM enz.) (kinact/KI, M^−1*s^−1) ([3]; 20 nM enzyme)	kinact/KI [3, 7]	Ki [3, 8]	kinact [3, 9]	kinact/KI [3, 10]
CC#CC(=O)N1CC(N2CCC(c3cc(C#N)c4c(c3)Nc3nccc(N5CCOCC5)c3[C@H](C)O4)CC2)C1 (single isomer, unassigned) [Compound 442]	562 nM	> 10000 nM	0.772 µM	3.46e-05 s⁻¹	44.8 M⁻¹ s⁻¹	–	–	–	–	–	–	–	–
C=CC(=O)Nc1ccc(C(=O)Nc2ccc3c(c2)Nc2ncc(C)c(C4CCOCC4)c2CO3)cc1 [Compound 2]	794 nM	> 10000 nM	–	–	–	–	–	–	–	–	0.129 µM	7.86e-05 s⁻¹	609 M⁻¹ s⁻¹
CC#CC(=O)N1CC(N2CC[C@@H](c3cc4c(c(C)n3)O[C@@H](C)c3c(N5CCOCC5)ccnc3N4)C2)C1 (single isomer, unassigned) [Compound 328]	224 nM	> 10000 nM	0.472 µM	2.77e-05 s⁻¹	58.8 M⁻¹ s⁻¹	–	–	–	–	–	–	–	–
C=CC(=O)N1CC(N2CC(c3cc(C#N)c4c(c3)Nc3nccc(C5CCOCC5)c3[C@@H](C)O4)C2)C1 (single isomer, unassigned) [Compound 292]	56.2 nM	8320 nM	–	–	–	–	–	–	–	802 M⁻¹ s⁻¹	–	–	–
C=CC(=O)N1CC[C@H](N2CC(c3cc(C)c4c(c3)Nc3nccc(N5CCOCC5)c3CO4)C2)C1 (single isomer, unassigned) [Compound 150]	46.8 nM	6030 nM	0.0526 µM	8.76e-05 s⁻¹	1660 M⁻¹ s⁻¹	–	–	–	–	–	–	–	–
C=CC(=O)N1CC[C@@H](N2CC(c3cc(C)c4c(c3)Nc3nccc(C5CCOCC5)c3CO4)C2)C1 (single isomer, unassigned) [Compound 196]	105 nM	> 3980 nM	0.0924 µM	4.58e-05 s⁻¹	496 M⁻¹ s⁻¹	–	–	–	–	–	–	–	–
C=CC(=O)N1CC(n2cc(-c3cc4c(c(C)n3)OCc3c(N5CCOCC5)ccnc3N4)cn2)C1 [Compound 244]	72.4 nM	~7940 nM	0.0398 µM	4.37e-05 s⁻¹	1100 M⁻¹ s⁻¹	–	–	–	–	–	–	–	–
C=CC(=O)N1CC(c2ccnc(-c3ccc4c(c3)Nc3nccc(N5CCOCC5)c3CO4)c2)C1 [Compound 61]	1620 nM	> 10000 nM	1.32 µM	4.84e-05 s⁻¹	36.6 M⁻¹ s⁻¹	–	–	–	–	–	–	–	–
C=CC(=O)N1CC(N2CCC(c3ccc4c(c3)Nc3nccc(C5CCOCC5)c3[C@@H](C)O4)CC2)C1 (single isomer, unassigned) [Compound 97]	66.1 nM	> 10000 nM	0.0627 µM	0.00011 s⁻¹	1760 M⁻¹ s⁻¹	–	–	–	–	1510 M⁻¹ s⁻¹	–	–	–
C#CCN(C(=O)C=C)c1ccc(C(=O)Nc2ccc3c(c2)Nc2nccc(C4CCOCC4)c2CO3)cc1 [Compound 17]	126 nM	> 10000 nM	–	–	–	–	–	–	–	1470 M⁻¹ s⁻¹	–	–	–
C=CC(=O)N1CC(N2CC(c3ccc4c(c3)Nc3nccc(N5CCOCC5)c3CO4)C2)C1 [Compound 88]	162 nM	> 10000 nM	–	–	–	–	–	–	–	1050 M⁻¹ s⁻¹	–	–	–
C=CC(=O)N1CC(N2CCC(c3cc4c(c(C(N)=O)c3)OCc3c(C5CCOCC5)ccnc3N4)CC2)C1 [Compound 158]	126 nM	> 3980 nM	0.204 µM	7.68e-05 s⁻¹	377 M⁻¹ s⁻¹	–	–	–	–	–	–	–	–
C=CC(=O)N1CC[C@H](N2CC(c3cc(C)c4c(c3)Nc3nccc(C5CCOCC5)c3CO4)C2)[C@H](F)C1 (mixture of isomers) [Compound 200]	93.3 nM	~10000 nM	0.0506 µM	4.11e-05 s⁻¹	812 M⁻¹ s⁻¹	–	–	–	–	–	–	–	–
CC#CC(=O)N1CC[C@H](N2CC(c3cc(C)c4c(c3)Nc3nccc(N5CCOCC5)c3[C@H](C)O4)C2)C1 (single isomer, unassigned) [Compound 281]	692 nM	> 10000 nM	0.683 µM	4.07e-05 s⁻¹	59.6 M⁻¹ s⁻¹	–	–	–	–	–	–	–	–
C=CC(=O)N1CC(N2CCC(c3cc(C)c4c(c3)Nc3nccc(-c5cnn(C)c5)c3CO4)CC2)C1 [Compound 99]	44.7 nM	> 10000 nM	–	–	–	–	–	–	–	1440 M⁻¹ s⁻¹	–	–	–
CC#CC(=O)N1CC[C@@H](N2CC(c3cc(C)c4c(c3)Nc3nccc(C5CCOCC5)c3CO4)C2)C1 (single isomer, unassigned) [Compound 296]	224 nM	> 10000 nM	0.067 µM	3.52e-05 s⁻¹	526 M⁻¹ s⁻¹	–	–	–	–	–	–	–	–

From patent publication US20240254138A1, “TRICYCLIC PYRIMIDINES AS CYCLIN-DEPENDENT KINASE 7 (CDK7) INHIBITORS” (JANSSEN PHARMACEUTICA NV, priority 2021, published 2024)
